Experimental data reported in ChEMBL document CHEMBL1201862, “PubChem BioAssay data set” (2004).
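Cultured in 96-well plates, cells were exposed to test compound for 48 hours across five concentrations. GI50 marks 50% less growth.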 The source made the active and inactive calls. Cut-off read from the data, not from the text of the source: active = GI50 up to about 1.1 µM and inactive = higher.

Legend:
Experiment in all cases: NCI-60 cell line screen, 48 h
786-0 = tested on: 786-0
A498 = tested on: A498
A549 = tested on: A549
ACHN = tested on: ACHN
CAKI-1 = tested on: CAKI-1
CCRF-CEM = tested on: CCRF-CEM
COLO 205 = tested on: COLO 205
DLD-1 = tested on: DLD-1
DMS-114 = tested on: DMS-114
DMS-273 = tested on: DMS-273
EKVX = tested on: EKVX
HCC 2998 = tested on: HCC 2998
HCT-116 = tested on: HCT-116
HOP-62 = tested on: HOP-62
HOP-92 = tested on: HOP-92
HT-29 = tested on: HT-29
IGROV-1 = tested on: IGROV-1
K562 = tested on: K562
KM-20L2 = tested on: KM-20L2
KM12 = tested on: KM12
LXFL 529 = tested on: LXFL 529
M14 = tested on: M14
M19-MEL = tested on: M19-MEL
MOLT-4 = tested on: MOLT-4
Malme-3M = tested on: Malme-3M
NCI-H226 = tested on: NCI-H226
NCI-H23 = tested on: NCI-H23
NCI-H460 = tested on: NCI-H460
NCI-H522 = tested on: NCI-H522
OVCAR-3 = tested on: OVCAR-3
OVCAR-4 = tested on: OVCAR-4
OVCAR-5 = tested on: OVCAR-5
OVCAR-8 = tested on: OVCAR-8
RPMI-8226 = tested on: RPMI-8226
RXF 631 = tested on: RXF 631
SF-268 = tested on: SF-268
SF-539 = tested on: SF-539
SK-MEL-28 = tested on: SK-MEL-28
SK-MEL-2 = tested on: SK-MEL-2
SK-MEL-5 = tested on: SK-MEL-5
SK-OV-3 = tested on: SK-OV-3
SN12C = tested on: SN12C
SNB-19 = tested on: SNB-19
SNB-75 = tested on: SNB-75
SW-620 = tested on: SW-620
U-251 = tested on: U-251
UACC-257 = tested on: UACC-257
UACC-62 = tested on: UACC-62
UO-31 = tested on: UO-31
XF498 = tested on: XF498
HCT-15 = tested on: HCT-15
HL-60 = tested on: HL-60
LOX IMVI = tested on: LOX IMVI
RXF 393 = tested on: RXF 393
SF-295 = tested on: SF-295
TK-10 = tested on: TK-10

## COc1ccc2nc(NC(=O)C(=O)CC(=O)c3ccc([N+](=O)[O-])cc3)sc2c1
786-0
  GI50: > 100 µM (inactive)
A498
  GI50: > 100 µM (inactive)
A549
  GI50: > 100 µM (inactive)
ACHN
  GI50: > 100 µM (inactive)
CAKI-1
  GI50: > 100 µM (inactive)
CCRF-CEM
  GI50: > 100 µM (inactive)
COLO 205
  GI50: > 100 µM (inactive)
DLD-1
  GI50: > 100 µM (inactive)
DMS-114
  GI50: 90.6 µM (inactive)
DMS-273
  GI50: > 100 µM (inactive)
EKVX
  GI50: > 100 µM (inactive)
HCC 2998
  GI50: > 100 µM (inactive)
HCT-116
  GI50: > 100 µM (inactive)
HOP-62
  GI50: > 100 µM (inactive)
HOP-92
  GI50: > 100 µM (inactive)
HT-29
  GI50: > 100 µM (inactive)
IGROV-1
  GI50: > 100 µM (inactive)
K562
  GI50: > 100 µM (inactive)
KM-20L2
  GI50: > 100 µM (inactive)
KM12
  GI50: > 100 µM (inactive)
LXFL 529
  GI50: > 100 µM (inactive)
M14
  GI50: > 100 µM (inactive)
M19-MEL
  GI50: > 100 µM (inactive)
MOLT-4
  GI50: > 100 µM (inactive)
Malme-3M
  GI50: > 100 µM (inactive)
NCI-H226
  GI50: > 100 µM (inactive)
NCI-H23
  GI50: > 100 µM (inactive)
NCI-H460
  GI50: > 100 µM (inactive)
NCI-H522
  GI50: > 100 µM (inactive)
OVCAR-3
  GI50: > 100 µM (inactive)
OVCAR-4
  GI50: > 100 µM (inactive)
OVCAR-5
  GI50: > 100 µM (inactive)
OVCAR-8
  GI50: > 100 µM (inactive)
RPMI-8226
  GI50: > 100 µM (inactive)
RXF 631
  GI50: > 100 µM (inactive)
SF-268
  GI50: > 100 µM (inactive)
SF-539
  GI50: > 100 µM (inactive)
SK-MEL-28
  GI50: > 100 µM (inactive)
SK-MEL-2
  GI50: > 100 µM (inactive)
SK-MEL-5
  GI50: > 100 µM (inactive)
SK-OV-3
  GI50: > 100 µM (inactive)
SN12C
  GI50: > 100 µM (inactive)
SNB-19
  GI50: > 100 µM (inactive)
SNB-75
  GI50: > 100 µM (inactive)
SW-620
  GI50: > 100 µM (inactive)
U-251
  GI50: > 100 µM (inactive)
UACC-257
  GI50: > 100 µM (inactive)
UACC-62
  GI50: > 100 µM (inactive)
UO-31
  GI50: 50.7 µM (inactive)
XF498
  GI50: > 100 µM (inactive)

## COC(=O)CC(C(C(=O)OC)C(=O)OC)N1C(=O)OCC1c1ccccc1 (stereo not given)
786-0
  GI50: > 100 µM (inactive)
A498
  GI50: > 100 µM (inactive)
A549
  GI50: > 100 µM (inactive)
ACHN
  GI50: > 100 µM (inactive)
CAKI-1
  GI50: > 100 µM (inactive)
CCRF-CEM
  GI50: > 100 µM (inactive)
COLO 205
  GI50: > 100 µM (inactive)
DLD-1
  GI50: > 100 µM (inactive)
DMS-273
  GI50: 97.1 µM (inactive)
EKVX
  GI50: > 100 µM (inactive)
HCC 2998
  GI50: 28.5 µM (inactive)
HCT-116
  GI50: > 100 µM (inactive)
HCT-15
  GI50: > 100 µM
HL-60
  GI50: > 100 µM (inactive)
HOP-62
  GI50: > 100 µM (inactive)
HOP-92
  GI50: > 100 µM (inactive)
HT-29
  GI50: > 100 µM (inactive)
IGROV-1
  GI50: > 100 µM (inactive)
K562
  GI50: > 100 µM (inactive)
KM-20L2
  GI50: > 100 µM (inactive)
KM12
  GI50: > 100 µM (inactive)
LOX IMVI
  GI50: > 100 µM (inactive)
LXFL 529
  GI50: > 100 µM (inactive)
M14
  GI50: > 100 µM (inactive)
M19-MEL
  GI50: > 100 µM (inactive)
MOLT-4
  GI50: > 100 µM (inactive)
Malme-3M
  GI50: > 100 µM (inactive)
NCI-H226
  GI50: > 100 µM (inactive)
NCI-H23
  GI50: > 100 µM (inactive)
NCI-H460
  GI50: > 100 µM (inactive)
NCI-H522
  GI50: > 100 µM (inactive)
OVCAR-3
  GI50: > 100 µM (inactive)
OVCAR-4
  GI50: > 100 µM (inactive)
OVCAR-5
  GI50: > 100 µM (inactive)
OVCAR-8
  GI50: > 100 µM (inactive)
RPMI-8226
  GI50: 58.6 µM (inactive)
RXF 393
  GI50: > 100 µM (inactive)
RXF 631
  GI50: > 100 µM (inactive)
SF-268
  GI50: > 100 µM (inactive)
SF-295
  GI50: > 100 µM (inactive)
SF-539
  GI50: > 100 µM (inactive)
SK-MEL-28
  GI50: > 100 µM (inactive)
SK-MEL-2
  GI50: > 100 µM (inactive)
SK-MEL-5
  GI50: > 100 µM (inactive)
SK-OV-3
  GI50: > 100 µM (inactive)
SN12C
  GI50: > 100 µM (inactive)
SNB-19
  GI50: > 100 µM (inactive)
SNB-75
  GI50: > 100 µM (inactive)
SW-620
  GI50: 43.5 µM (inactive)
TK-10
  GI50: > 100 µM (inactive)
U-251
  GI50: > 100 µM (inactive)
UACC-257
  GI50: > 100 µM (inactive)
UACC-62
  GI50: > 100 µM (inactive)
UO-31
  GI50: > 100 µM (inactive)
XF498
  GI50: > 100 µM (inactive)
